# Results: publication PMC5365648, “Pharmacokinetics of the Novel Echinocandin CD101 in Multiple Animal Species” (Antimicrobial Agents and Chemotherapy, 2017)
# “Also recorded” adds a separate entry of the source. Read-outs that look alike come from different tables or passages of the source. Starred links: 1 amine or outer side, 2 acyl side, 3 side chain; linkers in the order of their positions; H or OH if unused. Positions of bridges follow the written chain, without caps; N, C: chain ends. Non-standard residues stand in square brackets, D forms with d. Residues, ends and D or L forms follow the SMILES beside them. *: point of attachment. Orn(4R-OH,5R-OCH2CH2NMe3+) = C[N+](C)(C)CCO[C@@H](N[*:3])[C@H](O)C[C@H](N[*:1])C(=O)[*:2]; pTerphenylCO(4''-OnC5H11) = CCCCCOc1ccc(-c2ccc(-c3ccc(C(=O)*)cc3)cc2)cc1; hTyr(3S-OH,4S-OH) = N[C@H](C(=O)O)[C@H](O)[C@@H](O)c1ccc(O)cc1; Pro(3S-OH,4S-Me) = C[C@H]1CN[C@H](C(=O)O)[C@H]1O; Hyp = O=C(O)[C@@H]1C[C@@H](O)CN1
# Key:
# [1] = Rat pharmacokinetics, i.v. bolus; format: in vivo, Sprague-Dawley rats; conditions: for Tmax: read-out: Tmax
# Protocol: (§1) In one of three rat studies reported here, a single 5-, 15-, or 45-mg/kg dose of CD101 was administered by slow i.v. bolus (∼3 min) to Sprague-Dawley rats (n = 3 to 5/dose). Blood samples (via jugular vein catheter [JVC]) were drawn for plasma processing at 0.083, 0.25, 0.5, 1, 2, 4, 8, 24, 48, 120, 168, and 240 h after dosing. In the second rat study, conducted to assess tissue distribution, a single 5-mg/kg dose of CD101 was administered by slow i.v. bolus (∼3 min) to male Sprague-Dawley rats (n = 3 animals/time point). Blood samples (via cardiac puncture) were collected for plasma processing predose and at 0.083, 0.5, 1, 2, 4, 8, 24, 48, 72, 96, and 120 h postdose. In parallel with blood collection, animals were euthanized, and tissues (liver, lungs, kidneys, heart, spleen, and brain) were excised and frozen prior to analysis. In the third rat study, conducted to assess excretion, a single 5-mg/kg dose of CD101 was administered by slow i.v. bolus (∼3 min) to bile duct-cannulated male Sprague-Dawley rats (n = 3). Bile samples were collected from each animal into prelabeled bile collection tubes predose and at 0 to 8, 8 to 24, 24 to 48, 48 to 72, 72 to 96, and 96 to 120 h postdose; urine samples were collected from each animal at the same time points pre- and postdose.
# (§2) For each of the pharmacokinetic studies, whole-blood samples (K3EDTA as anticoagulant) were collected and centrifuged within 30 min of collection. The resulting plasma was harvested and stored at −20°C until analysis. Tissue samples were homogenized by a bead-based homogenizer following the addition of deionized water to excised tissue in a 2:1 (vol/wt) ratio and stored at −20°C until analysis. Prior to analysis, plasma or homogenized tissue samples were quenched with acetonitrile (3:1, acetonitrile-plasma or tissue ratio) containing an appropriate internal standard (isotopically labeled d9-CD101 [mouse and rat] or a structural analog [dog, monkey, and chimpanzee]). Plasma and tissue homogenate concentrations (quantified against calibration standards processed the same way) were determined by reverse-phase, gradient liquid chromatography with tandem mass spectrometric detection (LC-MS/MS) using an AB-SCIEX API 3200Q/4000 mass spectrometry system. Calibration standard ranges were the following: 0.400 (lower limit of quantitation, [LLOQ]) to 200 μg/ml (CD101, mouse), 0.040 (LLOQ) to 10 μg/ml (anidulafungin, mouse), 0.002 (LLOQ) to 10 μg/ml (CD101, rat), 0.005 (LLOQ) to 10 μg/ml (anidulafungin, rat), 0.050 (LLOQ) to 10 μg/ml (CD101, dog), 0.020 (LLOQ) to 10 μg/ml (anidulafungin, dog), 0.010 (LLOQ) to 10 μg/ml (CD101, monkey), 0.001 (LLOQ) to 10 μg/ml (anidulafungin, monkey), 0.015 (LLOQ) to 10 μg/ml (CD101, chimpanzee), and 0.015 (LLOQ) to 10 μg/ml (anidulafungin, chimpanzee). When necessary, dilutions with blank matrix were made for samples that quantified above the upper limit of quantitation. The methods used in the analysis were qualified as fit for purpose: calibration standards were matrix matched with the exception that human plasma calibration standards were used to analyze chimpanzee plasma samples due to the rarity of blank chimpanzee plasma, and, for each analytical batch, triplicate calibration standards were included at the beginning, approximately in the middle, and at the end of the batch. Following analysis, quantitation was carried out by a calibration curve comprising the analyte/internal standard area ratio versus concentration. Analytical batch acceptance followed the general guidance that triplicate standards/quality controls be within ±20% for accuracy (percentage of nominal concentration) and ≤20% for precision (percent coefficient of variation).
# (§3) Pharmacokinetic parameters were calculated by noncompartmental analysis using Phoenix WinNonlin (version 6.3; Pharsight, Mountain View, CA) from either individual or mean (mouse) concentration-time profiles. An unpaired t test was used to compare mean exposures from male and female rats.
# [2] = Cynomolgus monkey pharmacokinetics, i.v. bolus; set-up: species or system cynomolgus monkeys; conditions: in vivo, iv, male cynomolgus monkeys, single 2.13 mg/kg slow i.v. bolus, plasma, LC-MS/MS, noncompartmental
# Protocol: A single dose of 2.13 mg/kg CD101 or 2.8 mg/kg anidulafungin was administered by slow i.v. bolus (∼10 min) to cynomolgus monkeys (n = 3/group), and blood samples (via peripheral vein) were drawn for plasma processing at 0.167, 0.5, 1, 3, 8, 12, 24, 48, and 72 h postdose.
# as §2, §3
# [3] = Rat tissue distribution after i.v. bolus; format: in vivo, Sprague-Dawley rats; conditions: for Kp: rat, iv
# Protocol: as §1, §2, §3
# [4] = rat, in vivo, iv, 45 mg/kg, male Sprague-Dawley rats, single 45 mg/kg slow i.v. bolus, plasma, LC-MS/MS, noncompartmental, n = 3 to 5/dose
# [5] = male Sprague-Dawley rats, single 5 mg/kg i.v. bolus
# [6] = male Sprague-Dawley rats, single 5 mg/kg i.v. bolus, t = 120 h, LC-MS/MS, n = 3/time point
smiles,measurement,setting,value
"CCCCCOc1ccc(-c2ccc(-c3ccc(C(=O)N[C@H]4C[C@@H](O)[C@@H](OCC[N+](C)(C)C)NC(=O)[C@@H]5[C@@H](O)[C@@H](C)CN5C(=O)[C@H]([C@@H](C)O)NC(=O)[C@H]([C@H](O)[C@@H](O)c5ccc(O)cc5)NC(=O)[C@@H]5C[C@@H](O)CN5C(=O)[C@H]([C@@H](C)O)NC4=O)cc3)cc2)cc1 [CD101] ({pTerphenylCO(4''-OnC5H11)}-[Orn(4R-OH,5R-OCH2CH2NMe3+)]T[Hyp][hTyr(3S-OH,4S-OH)]T[Pro(3S-OH,4S-Me)]; lactam 1-C)",Vd,"[1]; rat, in vivo, iv, 45 mg/kg, female Sprague-Dawley rats, single 45 mg/kg slow i.v. bolus, plasma, LC-MS/MS, noncompartmental, n = 3 to 5/dose, read-out: Vss (volume of distribution at steady state)",1.55 L/kg
same,AUC(0-inf),[1]; [4],1660 µg·h/mL
same,AUC(0-t),[1]; [4],1610 µg·h/mL
same,Cmax,[1]; [4],164 µg/mL
same,half-life,[1]; [4],44.5 h
same,clearance,"[1]; rat, in vivo, iv, 45 mg/kg, male Sprague-Dawley rats, single 45 mg/kg slow i.v. bolus, plasma, LC-MS/MS, noncompartmental, n = 3 to 5/dose, read-out: CL (clearance)",0.452 mL/min/kg
same,Vd,"[1]; rat, in vivo, iv, 45 mg/kg, male Sprague-Dawley rats, single 45 mg/kg slow i.v. bolus, plasma, LC-MS/MS, noncompartmental, n = 3 to 5/dose, read-out: Vss (volume of distribution at steady state)",1.57 L/kg
same,Vd,"[1]; rat, in vivo, iv, rat, intravenous, one value for the species as given in the abstract (doses 5, 15, 45 mg/kg, both sexes in Table 1), read-out: Vss",1.39 L/kg
same,clearance,"[1]; rat, in vivo, iv, rat, intravenous, one value for the species as given in the abstract (doses 5, 15, 45 mg/kg, both sexes in Table 1), read-out: clearance",0.47 mL/min/kg
same,Tmax,"[1]; rat, in vivo, iv, female Sprague-Dawley rats, single 15 mg/kg slow i.v. bolus, plasma, LC-MS/MS, noncompartmental, n = 3 to 5/dose",4.98 min
same,Tmax,"[1]; rat, in vivo, iv, female Sprague-Dawley rats, single 45 mg/kg slow i.v. bolus, plasma, LC-MS/MS, noncompartmental, n = 3 to 5/dose",4.98 min
same,Tmax,"[1]; rat, in vivo, iv, male Sprague-Dawley rats, single 5 mg/kg slow i.v. bolus, plasma, LC-MS/MS, noncompartmental, n = 3 to 5/dose",4.98 min
same,half-life,"[1]; rat, in vivo, iv, one value for the species as given in the abstract (doses 5, 15, 45 mg/kg, both sexes in Table 1)",39 h
same,PK differences between males and females,[1]; rats (Table 1) or monkeys (data not shown),no sex differences; also recorded: No PK differences between males and females
same,AUC(0-t),[2]; n = 3,92.1 µg·h/mL
same,Cmax,[2]; n = 3,9.07 µg/mL
same,Tmax,[2]; n = 3,0.167 h
same,half-life,[2]; n = 3,39.7 h
same,clearance,"[2]; n = 3, read-out: CL (clearance)",0.405 mL/min/kg
same,Vd,"[2]; n = 3, read-out: Vss (volume of distribution at steady state)",0.597 L/kg
same,Tmax in brain tissue,[3]; [5],48 h
same,Tmax in heart tissue,[3]; [5],8 h
same,time of maximum concentration in plasma and tissues except heart and brain (first sampling time),[3]; [5],5 min
same,Mean AUC0–t in brain tissue,[3]; [6],145 µg·h/g
same,Mean AUC0–t in kidney tissue,[3]; [6],"1,100 μg · hr/g"
same,Kp,"[3]; male, Sprague-Dawley, kidney, lung, liver, spleen / plasma, rats, 5 mg/kg i.v., read-out: Tissue/plasma AUC ratio, fold higher in major organs (kidney, lung, liver, spleen) than in plasma",4 to 5
same,Kp,"[3]; brain / plasma, male Sprague-Dawley rats, single 5 mg/kg i.v. bolus, t = 120 h, tissue homogenate, LC-MS/MS, n = 3/time point, read-out: Tissue/plasma AUC0–t ratio, brain",0.609
same,Kp,"[3]; heart / plasma, male Sprague-Dawley rats, single 5 mg/kg i.v. bolus, t = 120 h, tissue homogenate, LC-MS/MS, n = 3/time point, read-out: Tissue/plasma AUC0–t ratio, heart",1.09
same,Kp,"[3]; kidney, male Sprague-Dawley rats, single 5 mg/kg i.v. bolus, t = 120 h, tissue homogenate, LC-MS/MS, n = 3/time point, read-out: Tissue/plasma AUC0–t ratio, kidney",4.62
same,Kp,"[3]; liver, male Sprague-Dawley rats, single 5 mg/kg i.v. bolus, t = 120 h, tissue homogenate, LC-MS/MS, n = 3/time point, read-out: Tissue/plasma AUC0–t ratio, liver",4.14
same,Kp,"[3]; lung, male Sprague-Dawley rats, single 5 mg/kg i.v. bolus, t = 120 h, tissue homogenate, LC-MS/MS, n = 3/time point, read-out: Tissue/plasma AUC0–t ratio, lung",4.33
same,Kp,"[3]; spleen / plasma, male Sprague-Dawley rats, single 5 mg/kg i.v. bolus, t = 120 h, tissue homogenate, LC-MS/MS, n = 3/time point, read-out: Tissue/plasma AUC0–t ratio, spleen",3.87
